Laboratory results from patent US7427601B2, “Method for treating tremor” (Schwarz Pharma AG, priority 2004, dated 2008).

System: harmaline-induced tremors
Assay: Harmaline-induced tremors in rats
Format: in vivo, Male Sprague-Dawley rats
Details: for Intensity of tremors after harmaline administration (score), Mean ± S.E.M.: scale 0 to 4
Description: Male Sprague-Dawley rats (Charles River Laboratories, France) were used. During the acclimatization period, animals were housed 2 per cage, in Makrolon type III cages, in the animal room (temperature: 20±2° C., humidity: minimum 45%, air changes: >12 per hour, light/dark cycle of 12 h/12 h [on at 7:00 A.M.]). Animals were allowed a minimum of 5 days period before experiment for acclimatization.
Harmaline HCl (Sigma) was diluted in saline and injected at 20 mg/kg, i.p. The reference compound, propanolol was injected i.p. at 20 mg/kg, 30 min before harmaline administration. SPM 927 was given i.p. at 3, 10 and 30 mg/kg, 30 min before harmaline administration.
The following parameters were assessed by an observer blind to the treatment of the animals. • Intensity: from 0 to 4 (0: no tremor, 1: mild tremor, 2: moderate intermittent tremor, 3: moderate persistent tremor, 4: pronounced severe tremor). Intensity will be scored every 30 min and for a total period of 120 min after harmaline administration. • Latency of onset • Total duration of tremor (max observation time: 120 min) • % rat displaying tremor

CC(C)NCC(O)COc1cccc2ccccc12 (stereo not shown) [Propranolol, reference compound]
Intensity of tremors after harmaline administration (score), Mean ± S.E.M. (20 mg/kg i.p. 30 min before harmaline (20 mg/kg i.p.), +30 min): 1.6 ± 0.2 score
Intensity of tremors after harmaline administration (score), Mean ± S.E.M. (20 mg/kg i.p. 30 min before harmaline (20 mg/kg i.p.), +60 min): 2.3 ± 0.3 score
Intensity of tremors after harmaline administration (score), Mean ± S.E.M. (20 mg/kg i.p. 30 min before harmaline (20 mg/kg i.p.), +90 min): 1.6 ± 0.3 score
Intensity of tremors after harmaline administration (score), Mean ± S.E.M. (20 mg/kg i.p. 30 min before harmaline (20 mg/kg i.p.), +120 min): 1.4 ± 0.3 score
intensity of tremors (in words) (20 mg/kg, each time-point of observation): reduced the intensity of tremors in a statistically significant manner

COC[C@@H](NC(C)=O)C(=O)NCc1ccccc1 [SPM 927, (R)-2-acetamide-N-benzyl-3-methoxypropionamide]
Intensity of tremors after harmaline administration (score), Mean ± S.E.M. (3 mg/kg i.p. 30 min before harmaline (20 mg/kg i.p.), +30 min): 2.0 ± 0.4 score
Intensity of tremors after harmaline administration (score), Mean ± S.E.M. (3 mg/kg i.p. 30 min before harmaline (20 mg/kg i.p.), +60 min): 2.0 ± 0.3 score
Intensity of tremors after harmaline administration (score), Mean ± S.E.M. (3 mg/kg i.p. 30 min before harmaline (20 mg/kg i.p.), +90 min): 2.1 ± 0.4 score
Intensity of tremors after harmaline administration (score), Mean ± S.E.M. (3 mg/kg i.p. 30 min before harmaline (20 mg/kg i.p.), +120 min): 1.8 ± 0.4 score
Intensity of tremors after harmaline administration (score), Mean ± S.E.M. (10 mg/kg i.p. 30 min before harmaline (20 mg/kg i.p.), +30 min): 2.0 ± 0.2 score
Intensity of tremors after harmaline administration (score), Mean ± S.E.M. (10 mg/kg i.p. 30 min before harmaline (20 mg/kg i.p.), +60 min): 1.1 ± 0.3 score
Intensity of tremors after harmaline administration (score), Mean ± S.E.M. (10 mg/kg i.p. 30 min before harmaline (20 mg/kg i.p.), +90 min): 2.2 ± 0.4 score
Intensity of tremors after harmaline administration (score), Mean ± S.E.M. (10 mg/kg i.p. 30 min before harmaline (20 mg/kg i.p.), +120 min): 1.3 ± 0.3 score
Intensity of tremors after harmaline administration (score), Mean ± S.E.M. (30 mg/kg i.p. 30 min before harmaline (20 mg/kg i.p.), +30 min): 0.9 ± 0.4 score
Intensity of tremors after harmaline administration (score), Mean ± S.E.M. (30 mg/kg i.p. 30 min before harmaline (20 mg/kg i.p.), +60 min): 1.1 ± 0.3 score
Intensity of tremors after harmaline administration (score), Mean ± S.E.M. (30 mg/kg i.p. 30 min before harmaline (20 mg/kg i.p.), +90 min): 1.4 ± 0.3 score
Intensity of tremors after harmaline administration (score), Mean ± S.E.M. (30 mg/kg i.p. 30 min before harmaline (20 mg/kg i.p.), +120 min): 1.2 ± 0.2 score
intensity of harmaline-induced tremors (in words) (given at 3, 10 and 30 mg/kg): reduced the intensity of harmaline-induced tremors in a dose dependent manner
maximal efficacy on tremor intensity compared with propranolol (in words) (highest dose tested (30 mg/kg) versus propranolol 20 mg/kg): higher than that of the positive reference compound propranolol
intensity of harmaline-induced tremor (in words) (rats, summary statement): reduced
latency of tremor onset following harmaline injection (in words) (rats, summary statement): markedly increased
total duration of harmaline-induced tremor (in words) (rats, summary statement): reduced
